Experimental data reported in patent US10774084B2, “Adenine derivatives and their use as UV-photoprotective agents” (UNIVERZITA PALACKEHO V OLOMOUCI, priority 2015, dated 2020).

Tested on: human dermal fibroblast (HDF)
Assay: Comparative gene expression analysis (mRNA sequencing)
Assay type: cell-based
Settings: 5 μM, 24 h
Protocol: Comparative gene expression analysis in human dermal fibroblast (HDF) was performed to gain insight into role of compound 1 in the photoprotection against UV-induced damage. Three independent HDF lines form three patients were treated with 5 μM 1 for 24 h or mock-treated with DMSO. Alternatively, the above three biological samples (without 1) were irradiated with UV light (5 J/cm2). 1.5-3.0×10^6 cells from each treatment or control was used for isolation of total RNA using trizol. cDNA sequencing libraries were prepared with the Illumina TruSeq Stranded mRNA LT Sample Prep Kit (Illumina, San Diego, Calif.) according to standard Illumina's protocols and sequenced on HiSeq 2500 apparatus (50 bp single-end reads).
To reveal the molecular mechanism of the action of 1, we compared data from mock (DMSO)-treated HDF or UV-treated HDF with those obtained after 24 h treatment with 1. For data analysis, we performed ab initio method where sequencing reads were mapped to the reference genome. […] These included calcium-activated potassium channel KCNN4, calcium sensor DYSF or calcium-dependent phospholipid-binding protein CPNE7. […] Thus, 1 seems to protect cells against oxidative damage caused primarily by UV-light or other stress conditions.

[1] = 1-treated vs UV-treated group, P<0.05

c1nc(NCC2CCCO2)c2ncn(C3CCCO3)c2n1 (centres unmarked) [Compound 1, 6-(tetrahydrofuran-2-ylmethylamino)-9-(tetrahydrofuran-2-yl)purine] was tested, and the “number of differentially regulated genes” value [1] was 1306 genes, the “number of downregulated genes” value [1] was 441 genes and the “number of upregulated genes” value [1] was 865 genes. The “significantly regulated genes, control group vs samples treated with 1 (in words)” value (vs DMSO mock) was “did not show any significantly regulated genes”, the “logFC ABCG1” value (vs UV-treated group) was −2.63 and the “logFC AC002456.2” value (vs UV-treated group) was 1.58. For the same compound, the “logFC AC003986.6” value (vs UV-treated group) was −1.65, the “logFC ADAMTS9-AS2” value (vs UV-treated group) was −1.63 and the “logFC ADGRG1” value (vs UV-treated group) was 1.52. For the same compound, the “logFC ANGPTL4” value (vs UV-treated group) was 1.73, the “logFC ANKRD33” value (vs UV-treated group) was 2.69 and the “logFC APOL6” value (vs UV-treated group) was −1.51. For the same compound, the “logFC ARHGAP22” value (vs UV-treated group) was 1.66, the “logFC B4GALNT1” value (vs UV-treated group) was 1.55 and the “logFC BHLHE22” value (vs UV-treated group) was −1.90. For the same compound, the “logFC BRINP2” value (vs UV-treated group) was −1.77, the “logFC BTC” value (vs UV-treated group) was −1.84 and the “logFC CCDC107” value (vs UV-treated group) was 1.50. For the same compound, the “logFC CCL8” value (vs UV-treated group) was −2.80, the “logFC CCL26” value (vs UV-treated group) was 1.75 and the “logFC CD163” value (vs UV-treated group) was 1.67. The “logFC CFB” value (vs UV-treated group) was −1.96, the “logFC CHRNA9” value (vs UV-treated group) was 2.21 and the “logFC CITED4” value (vs UV-treated group) was 1.63. For the same compound, the “logFC CLNS1AP1” value (vs UV-treated group) was −1.80, the “logFC CPNE7” value (vs UV-treated group) was 1.61 and the “logFC CTD-2587H24.5” value (vs UV-treated group) was 1.54. The “logFC CXCL9” value (vs UV-treated group) was −1.79, the “logFC CYP51A1” value (vs UV-treated group) was 1.65 and the “logFC DHRS3” value (vs UV-treated group) was −1.60. For the same compound, the “logFC DYSF” value (vs UV-treated group) was 1.73, the “logFC EBF2” value (vs UV-treated group) was 1.62 and the “logFC FAM20A” value (vs UV-treated group) was −1.86. For the same compound, the “logFC FAM81A” value (vs UV-treated group) was 1.71, the “logFC FGD3” value (vs UV-treated group) was −1.93 and the “logFC FOLR3” value (vs UV-treated group) was 1.68. The “logFC GBP2” value (vs UV-treated group) was −1.61, the “logFC GPR37L1” value (vs UV-treated group) was −1.66 and the “logFC HAUS1P2” value (vs UV-treated group) was −1.54. The “logFC HCK” value (vs UV-treated group) was −1.66, the “logFC HS3ST2” value (vs UV-treated group) was 2.50 and the “logFC IFIT2” value (vs UV-treated group) was −1.77. For the same compound, the “logFC ITGA10” value (vs UV-treated group) was 1.77, the “logFC JAK3” value (vs UV-treated group) was −1.68 and the “logFC KCNN4” value (vs UV-treated group) was 1.85. For the same compound, the “logFC KCNT2” value (vs UV-treated group) was −2.21, the “logFC KIF1A” value (vs UV-treated group) was 3.05 and the “logFC LINC00702” value (vs UV-treated group) was 1.60. The “logFC LINC00704” value (vs UV-treated group) was 1.69, the “logFC LINC01204” value (vs UV-treated group) was 1.64 and the “logFC MET” value (vs UV-treated group) was 1.63. The “logFC MOB3B” value (vs UV-treated group) was −1.70, the “logFC MYEOV” value (vs UV-treated group) was 1.98 and the “logFC NRROS” value (vs UV-treated group) was 1.74. The “logFC NUDT8” value (vs UV-treated group) was 1.56, the “logFC PPP2R2C” value (vs UV-treated group) was 1.95 and the “logFC PSAT1P3” value (vs UV-treated group) was −2.19. The “logFC RARRES3” value (vs UV-treated group) was −2.09, the “logFC RNF150” value (vs UV-treated group) was −1.80 and the “logFC RORB” value (vs UV-treated group) was −1.57. For the same compound, the “logFC RP1-181J22.1” value (vs UV-treated group) was −2.53, the “logFC RP11-21C4.1” value (vs UV-treated group) was −1.95 and the “logFC RP11-54A9.1” value (vs UV-treated group) was 1.63. The “logFC RP11-184E9.1” value (vs UV-treated group) was 1.78, the “logFC RP11-363H12.1” value (vs UV-treated group) was −1.58 and the “logFC RP11-367F23.2” value (vs UV-treated group) was 1.70. The “logFC RP11-379B8.1” value (vs UV-treated group) was −1.72, the “logFC RP11-383F6.1” value (vs UV-treated group) was −1.50 and the “logFC RP11-400K9.4” value (vs UV-treated group) was −1.51. The “logFC RP11-541M12.6” value (vs UV-treated group) was 1.70, the “logFC RP11-1100L3.8” value (vs UV-treated group) was −1.70 and the “logFC RPL34P31” value (vs UV-treated group) was −1.89. The “logFC SCG2” value (vs UV-treated group) was 2.00, the “logFC SERPINB9” value (vs UV-treated group) was −1.59 and the “logFC SLC20A1” value (vs UV-treated group) was 1.56. For the same compound, the “logFC STX1A” value (vs UV-treated group) was 1.55, the “logFC TGM2” value (vs UV-treated group) was 1.58 and the “logFC TLR2” value (vs UV-treated group) was −1.63. The “logFC TM4SF1” value (vs UV-treated group) was 2.08, the “logFC TMEM154” value (vs UV-treated group) was 1.57 and the “logFC TMEM178A” value (vs UV-treated group) was −1.52. For the same compound, the “logFC TMEM233” value (vs UV-treated group) was 2.12, the “logFC TNFRSF9” value (vs UV-treated group) was −1.68 and the “logFC TNFSF10” value (vs UV-treated group) was −2.14. For the same compound, the “logFC TNFSF13B” value (vs UV-treated group) was −1.61 and the “logFC TP63” value (vs UV-treated group) was −1.61.
